Source: patent US8420621B2, “Methods of using gamma cyclodextrin to control blood glucose and insulin secretion” (Abbott Laboratories, priority 2004, dated 2013)

What was measured:
healthy adult subjects [1] = test: Clinical study: postprandial plasma glucose response; type: in vivo, human
From the text: Thirty-two healthy adult subjects received two treatments in a double-masked, randomized, crossover design. The two treatments consisted of 50 g challenges of either maltodextrin or gamma-cyclodextrin. Blood samples were collected over a three-hour period, and breath samples collected over an eight-hour period following consumption of each carbohydrate. […] This study utilized a randomized, double-masked, crossover design, with a 4-14 day washout period between treatments. Before completing the two treatment visits, each subject completed one pre-study gastrointestinal tolerance test visit. Randomization was carried out by sealed envelopes stating which pre-study treatment was to be received, as well as in which sequence the two treatment visits were to be carried out. These envelopes were prepared from randomization schedules generated at Ross Products Division of Abbott Laboratories, Two product coordinators assigned an envelope from the top of the pile to each subject in the order that they passed all screening criteria and were given subject numbers. Besides carrying out randomization, the product coordinators were responsible for study product inventory and serving the appropriate product to subjects at each visit so that other study staff could not become aware of the study product identity. […] At each of the two treatment visits, subjects received 16 fl oz of a study product containing either 50 g of maltodextrin or 50 g of gamma-cyclodextrin. All beverages were served cold in styrofoam cups with lids and straws, labeled only with the subject number, subject initials and visit number, with the intention of hiding any slight differences in appearance that could be visible to study staff or subjects. On two separate treatment visits, subjects received, in random order, one of the two study beverages. Three days prior to each treatment visit, subjects recorded their food and beverage intake in a food diary. Subjects were required to consume ≧150 g of carbohydrate each day for three days prior to each treatment. Subjects were not to engage in vigorous exercise for 24 hours before each treatment. Subjects consumed an evening low residue Ensure® meal and completed a 10-16 hour overnight fast as detailed previously. […] A breath sample was collected for measurement of breath hydrogen. […] Plasma glucose was measured using an AccuChek Advantage Blood Glucose Monitoring System® (Roche Diagnostics, Indianapolis, Ind.). […] Positive incremental area under the plasma glucose response curve for two hours after each treatment will be calculated using the method of Wolever et al, The glycemic index: methodology and clinical implications, Amer. […]

healthy adult subjects [2] = test: Clinical study: gastrointestinal tolerance, stool frequency and consistency; type: in vivo, human
Procedure: For the pre-study tolerance test, subjects were instructed to not consume anything the day before that was known by them to cause gastrointestinal symptoms. They also completed an overnight 10-16 hour fast. The morning of the test visit, subjects reported to the study site and consumed 8 fl oz of one of the two study beverages within 10 minutes. The study beverage contained either 25 […] of maltodextrin or 25 grams of gamma-cyclodextrin. Subjects then resumed fasting. Subjects were allowed to leave the study site after the beverage had been consumed, however they were instructed to remain fasting for three hours from the time they began drinking the beverage. Subjects recorded gastrointestinal tolerance symptoms and stool frequency and consistency for 24 hours from the time they began drinking the study beverage. Upon subject completion of the gastrointestinal tolerance symptoms and stool frequency and consistency forms, the data were reviewed for signs of abnormal tolerance by a physician. The purpose of this symptom review was to determine if the product was generally well-tolerated. […] After the 180-minute blood and breath samples were collected, the subject was allowed to leave the study site and collect the remaining breath samples (hours 4-8) on their own. During the remainder of the breath collection period, the subject was instructed to refrain from sleep and exercise. Subjects were to remain fasting with the exception of an optional one or two 8 fl oz cans of Ensure® Plus. The flavor given to each subject was the same as that which was chosen for the pre-treatment meals, and the number of cans chosen remained constant for both treatments. Subjects were allowed to consume water as desired during this time. After completion of breath sample collection, subjects were free to resume their normal sleeping, eating, and exercise patterns. They continued to record gastrointestinal symptoms, stool frequency and consistency, and medication usage for the next 48 hours. […]

healthy adult subjects [3] = conditions: single 8 g doses, Koutsou et al. 1999; cited from earlier work

SMILES: OC[C@H]1O[C@@H]2O[C@H]3[C@H](O)[C@@H](O)[C@@H](O[C@H]4[C@H](O)[C@@H](O)[C@@H](O[C@H]5[C@H](O)[C@@H](O)[C@@H](O[C@H]6[C@H](O)[C@@H](O)[C@@H](O[C@H]7[C@H](O)[C@@H](O)[C@@H](O[C@H]8[C@H](O)[C@@H](O)[C@@H](O[C@H]9[C@H](O)[C@@H](O)[C@@H](O[C@H]1[C@H](O)[C@H]2O)O[C@@H]9CO)O[C@@H]8CO)O[C@@H]7CO)O[C@@H]6CO)O[C@@H]5CO)O[C@@H]4CO)O[C@@H]3CO [Gamma-Cyclodextrin, Gamma-cyclodextrin]
- Plasma glucose area under the curve (AUC), effect versus maltodextrin (healthy adult subjects [1]; 50 g oral challenge): significantly reduced
- Adjusted peak glucose, difference between treatments (healthy adult subjects [1]; 50 g oral, crossover analysis p<0.0001): significant difference
- Positive incremental 120 min plasma glucose AUC (healthy adult subjects [1]; 50 g oral, mean±SEM, n=31): 133.2±16.5
- Relative glycemic response compared with maltodextrin (healthy adult subjects [1]; baseline to 120 min, 50 g oral): 55%
- Gastrointestinal tolerance versus maltodextrin, pre-study tolerance test (healthy adult subjects [2]; 25 grams oral, 24 hours, reviewing physician): no significant differences
- Stool frequency and consistency, difference between treatments (healthy adult subjects [2]; 50 g oral): no significant differences
- Intensity and frequency of nausea, difference between treatments (healthy adult subjects [2]; first 24 hours after 50 g oral, crossover analysis): not significantly different
- Gastrointestinal tolerance (healthy adult subjects [3]): good tolerance
